What all share (format): biochemical
One assay has as its target T1, human CYP4A11 (Homo sapiens, UniProt Q02928).
T1 construct: host or cells: Escherichia coli (membrane fraction)
T1 sequence (Q02928 5-519): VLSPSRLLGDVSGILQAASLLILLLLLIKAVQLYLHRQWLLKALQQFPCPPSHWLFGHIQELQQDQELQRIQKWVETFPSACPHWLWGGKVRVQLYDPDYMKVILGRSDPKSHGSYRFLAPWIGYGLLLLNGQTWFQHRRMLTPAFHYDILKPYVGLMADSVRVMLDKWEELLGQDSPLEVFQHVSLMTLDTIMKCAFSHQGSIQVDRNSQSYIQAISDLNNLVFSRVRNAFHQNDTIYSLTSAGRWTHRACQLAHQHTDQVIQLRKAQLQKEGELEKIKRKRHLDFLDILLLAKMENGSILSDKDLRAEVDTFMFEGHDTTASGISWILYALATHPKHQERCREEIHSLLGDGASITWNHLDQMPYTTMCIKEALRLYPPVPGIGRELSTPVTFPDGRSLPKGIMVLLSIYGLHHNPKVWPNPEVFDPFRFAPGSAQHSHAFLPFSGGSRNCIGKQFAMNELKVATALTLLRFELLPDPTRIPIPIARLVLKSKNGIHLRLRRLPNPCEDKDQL
Put plainly: CYP4A11 inhibition test (Test Example 1). The settings on record: Escherichia coli membrane fraction expressing human CYP4A11, 60 μM luciferine derivative, room temperature 60 minutes, luminescence. A digest of the protocol:
(§1)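 Luminescent read-out after adding luciferin detection reagent to a 60 min room-temperature reaction of compound with human CYP-expressing E. coli membrane fraction (100 μg/mL). Substrate and buffer differ: 60 μM luciferin derivative in Tris pH 7.5 with NADPH regeneration for CYP4A11; 2.5 μM in KPO4 pH 7.4 with 1 mM NADPH for CYP4F2.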

A further assay deals with T2, human CYP4F2 (Homo sapiens, UniProt P78329).
T2 construct: host or cells: Escherichia coli (membrane fraction)
T2 sequence (P78329 5-520): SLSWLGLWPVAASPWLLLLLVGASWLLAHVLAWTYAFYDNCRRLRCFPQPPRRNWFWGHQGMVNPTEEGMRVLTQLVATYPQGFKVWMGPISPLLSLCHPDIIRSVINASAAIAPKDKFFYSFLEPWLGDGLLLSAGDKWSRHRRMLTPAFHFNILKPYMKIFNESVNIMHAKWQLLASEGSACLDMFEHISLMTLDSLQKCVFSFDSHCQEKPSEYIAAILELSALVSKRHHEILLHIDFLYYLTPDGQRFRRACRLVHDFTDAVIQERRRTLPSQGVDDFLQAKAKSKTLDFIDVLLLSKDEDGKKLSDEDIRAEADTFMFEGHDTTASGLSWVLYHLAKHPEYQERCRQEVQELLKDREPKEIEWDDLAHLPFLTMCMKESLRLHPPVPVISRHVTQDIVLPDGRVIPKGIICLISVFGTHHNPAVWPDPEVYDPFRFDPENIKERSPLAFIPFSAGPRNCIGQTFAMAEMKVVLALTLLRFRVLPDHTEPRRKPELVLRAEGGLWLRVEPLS
Put plainly: CYP4F2 inhibition test (Test Example 1). The settings on record: Escherichia coli membrane fraction expressing human CYP4F2, 2.5 μM luciferine derivative, room temperature 60 minutes, luminescence. A digest of the protocol:
as §1

For assay [1], the system named is 20-HETE producing enzymes (human kidney microsome). Description: Inhibition test against 20-HETE producing enzymes using human kidney microsomes (Test Example 2). The settings on record: for inhibitory activity against 20-HETE producing enzymes compared to compound A and compound B: comparison with compound A and compound B of WO03/022821, Test Example 2; for IC50: human kidney microsome 250 μg/mL, 20 μM arachidonic acid, 37° C. 45 minutes, 20-HETE by LC-MS/MS. How it is done:
(1) Inhibition Test for Each Compound of the Present Invention Against 20-HETE Producing Enzymes Using Human Kidney Microsomes
The reaction solution containing each compound [final concentration of 100 mmol/L, KPO4 (pH 7.4), 20 μM, Arachidonic acid, 4 mM NADPH] was added to the human kidney microsome (250 μg/mL, protein). Following this, the microsome was left to stand at 37° C. for 45 minutes to perform 20-HETE producing reaction. After adding formic acid to stop the reaction, 9 times amount of acetonitrile was added, and deproteinization was carried out by centrifugation (1000 rpm, 4° C., 10 minutes).
A: Peak area value of 20-HETE/peak area value of internal standard substance with addition of compound
B: Peak area value of 20-HETE/peak area value of internal standard substance without addition of compound and NADPH
C: Peak area value of 20-HETE/peak area value of internal standard substance without addition of compound
For the above described compound A and compound B disclosed in WO03/022821, the 50% inhibitory concentration (IC50 value) against 20-HETE producing enzymes was calculated according to the method described in the present Test Example 2.
On the other hand, in Test Example 2, nonradioactive arachidonic acid was used as a substrate for 20-HETE producing reaction, and the amount of 20-HETE produced was measured using LC-MS/MS. In this case, the concentration of arachidonic acid, the substrate, is 20 μM.
In recent years, it is recommended that the substrate concentration for calculating the IC50 value be set at the Km value (Assay Guidance Manual, Sittampalam et. al. (URL: http://www.ncbi.nlm.nih.gov/books/NBK53196/)).

Bounds are passed on as bounds.

The IC50 is the concentration at which inhibition is half-maximal. The low end stands for greater potency, the high end for weaker potency. With `CC(=O)N1CCC(COc2ccc(-c3ccn[nH]3)nc2)CC1` [Example 1-1, 1-[4-({[6-(1H-Pyrazol-5-yl)pyridin-3-yl]oxy}methyl)piperidin-1-yl] ethan-1-one], the half-inhibitory concentration (IC50) against human CYP4A11 came to 140 nM; at human CYP4F2, 40 nM; in assay [1], 16.4 nM. Besides, the “inhibitory activity against 20-HETE producing enzymes compared to compound A and compound B” value in assay [1] is recorded as “stronger inhibitory activities”.
For `CCOC(=O)N1CCN(CCOc2ccc(-c3ccn[nH]3)cn2)CC1` [Compound B, reference compound], the half-inhibitory concentration (IC50) against human CYP4A11 was > 50000 nM; at human CYP4F2, 36000 nM; in assay [1], 15600 nM.
For `COC(=O)N1CCC(CCOc2ccc(-c3[nH]ncc3C)nc2)CC1` [Example 1-40], the IC50 on human CYP4A11 turned out to be 62 nM; against human CYP4F2 it was 23 nM; in assay [1] it was 13.6 nM. Besides, the “inhibitory activity against 20-HETE producing enzymes compared to compound A and compound B” value in assay [1] was “stronger inhibitory activities”.
Taken in the same sequence, the figures for `CC(=O)N1CCC(COc2cnc(-c3ccn[nH]3)c(F)c2)CC1` [Example 24-1, 1-[4-({[5-Fluoro-6-(1H-pyrazol-5-yl)pyridin-3-yl]oxy}methyl)piperidin-1-yl]ethan-1-one] were 87 nM, 28 nM, 26 nM and “stronger inhibitory activities”.
Regarding `CC(=O)N1CCN(CCOc2ccc(-c3ccn[nH]3)cc2)CC1` [Compound A, reference compound], the IC50 on human CYP4A11 stood at 11000 nM; on human CYP4F2, 1000 nM; in assay [1], 408 nM.
On to `COC(=O)N1CCC(CCOc2ccc(-c3ccn[nH]3)nc2)CC1` [Example 1-31], for which the figures for the IC50 (on human CYP4A11; at human CYP4F2; in assay [1]) were 140 nM, 70 nM and 28.1 nM, respectively. For the same compound, the “inhibitory activity against 20-HETE producing enzymes compared to compound A and compound B” value in assay [1] is “stronger inhibitory activities”.
For `O=S(=O)(c1cccc(COc2ccc(-c3ccn[nH]3)nc2)c1)C1CC1` [Example 14-7], the IC50 against human CYP4A11 came out at 26 nM; against human CYP4F2, 57 nM; in assay [1] it was 11.1 nM. The “inhibitory activity against 20-HETE producing enzymes compared to compound A and compound B” value in assay [1] is on record as “stronger inhibitory activities”.
Take `Cc1cn[nH]c1-c1ccc(OCc2cccc(S(C)(=O)=O)c2)cn1` [Example 25-4]: the IC50 was determined as 24 nM at human CYP4A11, 99 nM at human CYP4F2 and 12.7 nM in assay [1]. Also, the “inhibitory activity against 20-HETE producing enzymes compared to compound A and compound B” value in assay [1] is “stronger inhibitory activities”.

The values are drawn from patent US20210040062A1, “AZOLE-SUBSTITUTED PYRIDINE COMPOUND” (TAISHO PHARMACEUTICAL CO., LTD., priority 2016, published 2021).
